We go through 11 molecules from patent US9527838B2, “2-pyridinecarboxamide derivatives, compositions containing such compounds, and methods of treatment” (priority 2012, dated 2016).

For the test, the target named is Recombinant human liver glucokinase (Homo sapiens (Human), UniProt P35557). Briefly: Glucokinase activation assay (G6PDH-coupled, Thio-NADH absorbance at 405 nm). The class given is biochemical. The following applies: for pEC50: 30° C. The source says:
The glucokinase activity can, for instance, be determined without directly measuring glucose-6-phosphate by measuring the amount of Thio-NADH generated during the production of phosphogluconolactone from glucose-6-phosphate by a reporter enzyme glucose-6-phosphate dehydrogenase.
To test the exemplified compounds, the following assay was employed. Recombinant human liver glucokinase was expressed as a FLAG fusion protein in E. coli, and purified on […] M2 AFFINITY GEL (Sigma). The assay was carried out at 30° C. in a 96-well plate. In the plate was distributed 69 μl each of assay buffer (25 mM Hepes Buffer: pH=7.2, 2 mM MgCl2, 1 mM ATP, 0.5 mM TNAD, 1 mM dithiothreitol), to which was added 1 μl of a DMSO solution of the compound or DMSO as control. Then, 20 μl of pre-ice-cooled enzyme mixture (FLAG-GK, 20 U/ml G6PDH) was distributed thereto, to which was added 10 μl of 25 mM glucose as substrate to initiate the reaction (final glucose concentration=2.5 mM). After starting the reaction, the absorbance at 405 nm was measured every 30 seconds for 10 minutes to evaluate the compound based on the initial increase for 5 minutes. FLAG-GK was added so that the increase of absorbance after 5 minutes fell between 0.05 to 0.1 in the presence of 1% DMSO.
The OD values of the respective compounds were measured in the respective concentrations, wherein the OD value of DMSO as control is regarded as 100%.

pEC50: −log10 of the molar value. Read-outs that look alike come from different tables or passages of the source.

Recombinant human liver glucokinase, sequence (P35557 other isoform, or with tags, fused parts or gaps): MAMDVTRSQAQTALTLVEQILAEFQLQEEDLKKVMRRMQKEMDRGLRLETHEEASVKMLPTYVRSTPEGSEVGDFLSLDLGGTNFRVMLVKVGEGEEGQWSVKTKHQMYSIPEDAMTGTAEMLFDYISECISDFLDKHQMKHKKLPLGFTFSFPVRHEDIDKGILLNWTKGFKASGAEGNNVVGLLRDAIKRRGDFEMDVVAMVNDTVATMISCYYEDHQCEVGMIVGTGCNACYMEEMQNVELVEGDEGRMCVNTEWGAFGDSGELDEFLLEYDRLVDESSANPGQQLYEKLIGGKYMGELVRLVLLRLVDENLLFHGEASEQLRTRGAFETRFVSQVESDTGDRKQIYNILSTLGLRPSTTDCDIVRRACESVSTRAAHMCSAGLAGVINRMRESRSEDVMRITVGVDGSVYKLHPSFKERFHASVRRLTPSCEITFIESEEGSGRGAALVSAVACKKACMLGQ

Regarding `O=C(O)CSc1cnc(NC(=O)c2nc(Sc3ccc(F)cc3)ccc2Sc2ccc(F)cc2)s1` [Example 28, ({2-[({3,6-Bis[(4-fluorophenyl)sulfanyl]pyridin-2-yl}carbonyl)amino]-1,3-thiazol-5-yl}sulfanyl)acetic acid], the Emax (commonly the maximal effect, on the per cent scale that the assay sets) was determined as 343%. Also, the pEC50 – broadly, the negative decadic logarithm of the EC50, by convention in mol/L – (2.5 mM Glu) is 6.76.
In the case of `CCOC(=O)CSc1cnc(NC(=O)c2nc(Sc3ccccn3)ccc2Sc2ccc(OC)cc2)s1` [Example 10, Ethyl ({2-[({3-[(4-methoxyphenyl)sulfanyl]-6-(pyridin-2-ylsulfanyl)pyridin-2-yl}carbonyl)amino]-1,3-thiazol-5-yl}sulfanyl)acetate], where the note is “2.5 mM Glu”, the pEC50 was 7.45. Under “2.5 mM Glu, OD value of DMSO as control regarded as 100%, read-out: Emax”, the Emax was found to be 498%.
On to `COc1ccc(Sc2ccc(Sc3nncn3C)nc2C(=O)Nc2ncc(SCC(C)(C)C(=O)O)s2)cc1` [Example 6, 3-({2-[({3-[(4-methoxyphenyl)sulfanyl]-6-[(4-methyl-4H-1,2,4-triazol-3-yl)sulfanyl]pyridin-2-yl}carbonyl)amino]-1,3-thiazol-5-yl}sulfanyl)-2,2-dimethylpropanoic acid], for which the Emax was determined as 425%. Further, the pEC50 (2.5 mM Glu) was 7.80.
Consider `CCOC(=O)CSc1cnc(NC(=O)c2nc(Sc3ccccn3)ccc2Sc2ccc(F)cc2)s1` [Example 35, Ethyl ({2-[({3-[(4-fluorophenyl)sulfanyl]-6-(pyridin-2-ylsulfanyl)pyridin-2-yl}carbonyl)amino]-1,3-thiazol-5-yl}sulfanyl)acetate], for which the Emax worked out at 504%. Besides, where the note is “2.5 mM Glu”, the pEC50 was 7.08.
`CCOC(=O)Cc1nc(NC(=O)c2nc(Sc3ccc(F)cc3)ccc2Sc2ccc(F)cc2)sc1Cl` [Example 29, Ethyl {2-[({3,6-bis[(4-fluorophenyl)sulfanyl]pyridin-2-yl}carbonyl)amino]-5-chloro-1,3-thiazol-4-yl}acetate]: the Emax was 158%.
Regarding `O=C(O)Cc1csc(NC(=O)c2nc(Sc3ccccn3)ccc2Sc2ccc(F)cc2)n1` [Example 34, {2-[({3-[(4-Fluorophenyl)sulfanyl]-6-(pyridin-2-ylsulfanyl)pyridin-2-yl}carbonyl)amino]-1,3-thiazol-4-yl}acetic acid], the Emax came out at 762%. Moreover, the pEC50 (2.5 mM Glu) was 6.38.
Taken in the same sequence, the figures for `CCOP(=O)(Cc1cnc(NC(=O)c2nc(Sc3nncn3C)ccc2Sc2ccc(Cl)c(Cl)c2)s1)OCC` [Example 50] were 379% and 7.24.
As for `CNC(=O)CSc1cnc(NC(=O)c2nc(Sc3nncn3C)ccc2Sc2ccc(OC)cc2)s1` [Example 3, 3-[(4-methoxyphenyl)sulfanyl]-N-(5-{[2-(methylamino)-2-oxoethyl]sulfanyl}-1,3-thiazol-2-yl)-6-[(4-methyl-4H-1,2,4-triazol-3-yl)sulfanyl]pyridine-2-carboxamide], the Emax was determined as 572%. Further, the pEC50 (2.5 mM Glu) is 7.97.
For `Cn1cnnc1Sc1ccc(Sc2ccc(C(F)(F)F)cc2)c(C(=O)Nc2ncc(CCC(=O)O)s2)n1` [Example 49, 3-(2-{[(6-[(4-Methyl-4H-1,2,4-triazol-3-yl)sulfanyl]-3-{[4-(trifluoromethyl)phenyl]sulfanyl}pyridin-2-yl)carbonyl]amino}-1,3-thiazol-5-yl)propanoic acid], the Emax is 549%. For the same molecule, the pEC50 (2.5 mM Glu) is 6.76.
On to `CCOC(=O)Cc1nc(NC(=O)c2nc(Sc3nncn3C)ccc2Sc2ccc(Cl)c(Cl)c2)sc1Cl` [Example 53, Ethyl {5-chloro-2-[({3-[(3,4-dichlorophenyl)sulfanyl]-6-[(4-methyl-4H-1,2,4-triazol-3-yl)sulfanyl]pyridin-2-yl}carbonyl)amino]-1,3-thiazol-4-yl}acetate], for which the Emax was found to be 426%. The pEC50 (2.5 mM Glu) was 8.12.
With `CCOC(=O)Cc1nc(NC(=O)c2nc(Sc3nncn3C)ccc2Sc2ccc(C(F)(F)F)cc2)sc1Cl` [Example 41, Ethyl (5-chloro-2-{[(6-[(4-methyl-4H-1,2,4-triazol-3-yl)sulfanyl]-3-{[4-(trifluoromethyl)phenyl]sulfanyl}pyridin-2-yl)carbonyl]amino}-1,3-thiazol-4-yl)acetate], the Emax was 296%. In addition, the pEC50 (2.5 mM Glu) was 7.72.
